In patent US20190389843A1, “PYRROLE mTORC INHIBITORS AND USES THEREOF” (Navitor Pharmaceuticals, Inc., priority 2016, published 2019):

What was measured:
[1] = system: pS6K1 in MCF7 (measure of mTORC1 activity); assay: AlphaLISA Ultra pS6K1 assay; type: cell-based; conditions: Homo sapiens, MCF7, 2 h, MCF-7 cells, 2 hours compound incubation
Method: (§1) Assay Protocol: • 1. […] 12,000˜16,000 cells will be seeded in 36 μL medium per well. • 2. Change the culture medium with fresh medium and incubate for another 2 hours. • 3. Add 12 μL (4λ) compounds into the cell plate by HAMILTON. Final DMSO concentration is 0.5%. Incubate for 2 hours. • 4. Aspirate 38 μL by HAMILTON, 10 μL rest per well. • 5. Add 10 μL 2× lysis buffer using HAMILTON; total volume in wells is 20 μL. Allow cells to shake for 30 min. Cover plate by plastic foil and store plate at −80° C. up to analysis. • 6. […] Add 5 ul acceptor beads into assay plate and incubation for 2 hours • 8. Add 5 ul donor beads and incubation for 2 hours • 9. Count the plate by EnSpire Multimode Plate Reader

[2] = system: pAKT in MCF7 (measure of mTORC2 activity); assay: AlphaLISA Ultra pAKT assay; type: cell-based; conditions: Homo sapiens, MCF7, 2 h, MCF-7 cells, 2 hours compound incubation
Method: as §1, with “16,000˜20,000” for “12,000˜16,000”, “(4×)” for “(4λ)”

| SMILES | IC50 [1] [nM] | IC50 [2] [nM] |
| --- | --- | --- |
| C[C@H]1CN(c2cc(F)c(F)c(F)c2)CCN1C(=O)c1cc(CN2CCN(c3ccccc3Cl)CC2)cn1C [Example I-88, (S)-(4-((4-(2-chlorophenyl)piperazin-1-yl)methyl)-1-methyl-1H-pyrrol-2-yl)(2-methyl-4-(3,4,5-trifluorophenyl)piperazin-1-yl)methanone] | 1000 to 3000 | > 10000 |
| Cc1c(CN2CCN(c3ccccc3Cl)CC2)cc(C(=O)N2CCN(c3cc(F)c(F)c(F)c3)C[C@@H]2C)n1C [Example I-89, (S)-(4-((4-(2-Chlorophenyl)piperazin-1-yl)methyl)-1,5-dimethyl-1H-pyrrol-2-yl)(2-methyl-4-(3,4,5-trifluorophenyl)piperazin-1-yl)methanone] | 3000 to 10000 | > 10000 |
| Cc1c(CN2CCN(c3ncccc3Cl)CC2)cc(C(=O)N2CCN(c3cccc(Cl)c3)C[C@@H]2C)n1C [Example I-90, (S)-(4-(3-chlorophenyl)-2-methylpiperazin-1-yl)(4-((4-(3-chloropyridin-2-yl)piperazin-1-yl)methyl)-1,5-dimethyl-1H-pyrrol-2-yl)methanone] | 1000 to 3000 | > 3000 |
| Cc1c(CN2CCN(c3ccccc3Cl)CC2)cc(C(=O)N2CCn3c(nc4ccccc43)C2)n1C [Example I-91, (4-((4-(2-chlorophenyl)piperazin-1-yl)methyl)-1,5-dimethyl-1H-pyrrol-2-yl)(3,4-dihydrobenzo[4,5]imidazo[1,2-a]pyrazin-2(1H)-yl)methanone] | 10 to 1000 | > 5000 |
| Cc1c(CN2CCN(c3ncccc3Cl)CC2)cc(C(=O)N2CCN(c3ccc(F)cc3)C[C@@H]2C)n1C [Example I-92, (S)-(4-((4-(3-chloropyridin-2-yl)piperazin-1-yl)methyl)-1,5-dimethyl-1H-pyrrol-2-yl)(4-(4-fluorophenyl)-2-methylpiperazin-1-yl)methanone] | 10 to 1000 | > 1000 |
| Cc1c(CN2CCN(c3ccccc3Cl)CC2)cc(C(=O)N2CCN(c3cc(F)cc(F)c3)C[C@@H]2C)n1C [Example I-93, (S)-(4-((4-(2-chlorophenyl)piperazin-1-yl)methyl)-1,5-dimethyl-1H-pyrrol-2-yl)(4-(3,5-difluorophenyl)-2-methylpiperazin-1-yl)methanone] | 10 to 1000 | > 5000 |
| C[C@H]1CN(c2cc(F)cc(F)c2)CCN1C(=O)c1cc(CN2CCN(c3ccccc3Cl)CC2)cn1C [Example I-94, (S)-(4-((4-(2-chlorophenyl)piperazin-1-yl)methyl)-1-methyl-1H-pyrrol-2-yl)(4-(3,5-difluorophenyl)-2-methylpiperazin-1-yl)methanone] | 10 to 1000 | > 5000 |
| Cc1c(CN2CCN(c3ncccc3Cl)CC2)cc(C(=O)N2CCN(c3cccc(Cl)c3)CC2)n1C [Example I-98, 1-({5-[4-(3-Chlorophenyl)piperazine-1-carbonyl]-1,2-dimethyl-1H-pyrrol-3-yl}methyl)-4-(3-chloropyridin-2-yl)piperazine] | 10 to 1000 | > 3000 |
| C[C@@H]1CN(Cc2cc(C(=O)N3CCN(c4ccc(F)cc4)CC3)n(C)c2)CCN1c1ccccc1Cl [Example I-103] | 1000 to 3000 | > 10000 |
| Cc1c(CN2CCN(c3ccccc3Cl)CC2)cc(C(=O)N2CCN(c3cccc(N=[N+]=[N-])c3)C[C@@H]2C)n1C [Example I-104, (S)-(4-(3-azidophenyl)-2-methylpiperazin-1-yl)(4-((4-(2-chlorophenyl)piperazin-1-yl)methyl)-1,5-dimethyl-1H-pyrrol-2-yl)methanone] | 1000 to 3000 | > 5000 |
| Cc1c(CN2CCN(c3ccccc3Cl)CC2)cc(C(=O)N2CCN(c3ccc(F)c(C#N)c3)CC2)n1C [Example I-105, 5-(4-(4-((4-(2-Chlorophenyl)piperazin-1-yl)methyl)-1,5-dimethyl-1H-pyrrole-2-carbonyl)piperazin-1-yl)-2-fluorobenzonitrile] | 10 to 1000 | > 3000 |
| CC(c1cc(C(=O)N2CCN(c3ccccc3)CC2)n(C)c1)N1CCN(c2ccccc2Cl)CC1 (centres unmarked) [Example I-106, 1-(2-Chlorophenyl)-4-{1-[1-methyl-5-(4-phenylpiperazine-1-carbonyl)-1H-pyrrol-3-yl]ethyl}piperazine] | 1000 to 3000 | > 3000 |
| Cc1c(CN2CCN(c3ccccc3Cl)CC2)cc(C(=O)N2CCN(c3cccc(F)c3)CC2)n1C [Example I-108, (4-((4-(2-Chlorophenyl)piperazin-1-yl)methyl)-1,5-dimethyl-1H-pyrrol-2-yl)(4-(3-fluorophenyl)piperazin-1-yl)methanone] | 10 to 1000 | > 1000 |
| Cc1c(CN2CCN(c3ccccc3Cl)CC2)cc(C(=O)N2CCN(c3ccc(F)c(F)c3)CC2)n1C [Example I-109, (4-((4-(2-chlorophenyl)piperazin-1-yl)methyl)-1,5-dimethyl-1H-pyrrol-2-yl)(4-(3,4-difluorophenyl)piperazin-1-yl)methanone] | 10 to 1000 | > 1000 |
| Cc1c(CN2CCN(c3ccccc3Cl)CC2)cc(C(=O)N2CCN(c3cccc(C#N)c3)CC2)n1C [Example I-110, 3-(4-(4-((4-(2-chlorophenyl)piperazin-1-yl)methyl)-1,5-dimethyl-1H-pyrrole-2-carbonyl)piperazin-1-yl)benzonitrile] | 10 to 1000 | > 1000 |
| Cc1c(CN2CCN(c3ccccc3Cl)CC2)cc(C(=O)N2CCN(c3cccc(Cl)c3)C[C@@H]2C)n1C [Example I-112, (S)-(4-(3-chlorophenyl)-2-methylpiperazin-1-yl)(4-((4-(2-chlorophenyl)piperazin-1-yl)methyl)-1,5-dimethyl-1H-pyrrol-2-yl)methanone] | 10 to 1000 | > 3000 |

More lines, now with the values ahead:

| IC50 [1] [nM] | IC50 [2] [nM] | SMILES |
| --- | --- | --- |
| 10 to 1000 | > 3000 | Cc1c(CN2CCN(c3ccccc3Cl)CC2)cc(C(=O)N2CCN(c3ccc(F)cc3)C[C@@H]2C)n1C [Example I-95, (S)-(4-((4-(2-chlorophenyl)piperazin-1-yl)methyl)-1,5-dimethyl-1H-pyrrol-2-yl)(4-(4-fluorophenyl)-2-methylpiperazin-1-yl)methanone] |
| 10 to 1000 | > 3000 | Cc1c(CN2CCN(c3ccccc3Cl)CC2)cc(C(=O)N2CCN(c3cc(F)cc(F)c3)CC2)n1C [Example I-96, (4-((4-(2-chlorophenyl)piperazin-1-yl)methyl)-1,5-dimethyl-1H-pyrrol-2-yl)(4-(3,5-difluorophenyl)piperazin-1-yl)methanone] |
| 1000 to 3000 | > 5000 | Cc1c(CN2CCN(c3ccccc3N=[N+]=[N-])CC2)cc(C(=O)N2CCN(c3ccccc3)CC2)n1C [Example I-97, (4-((4-(2-azidophenyl)piperazin-1-yl)methyl)-1,5-dimethyl-1H-pyrrol-2-yl)(4-phenylpiperazin-1-yl)methanone] |
| 10 to 1000 | > 3000 | Cc1c(CN2CCN(c3ncccc3Cl)CC2)cc(C(=O)N2CCN(c3cccc(C#N)c3)C[C@@H]2C)n1C [Example I-99, (S)-3-(4-(4-((4-(3-chloropyridin-2-yl)piperazin-1-yl)methyl)-1,5-dimethyl-1H-pyrrole-2-carbonyl)-3-methylpiperazin-1-yl)benzonitrile] |
| 10 to 1000 | > 10000 | Cc1c(CN2CCN(c3ccccc3Cl)CC2)cc(C(=O)N2CCN(c3ccccc3C#N)C[C@@H]2C)n1C [Example I-100] |
| 10 to 1000 | > 5000 | C[C@H]1CN(c2cccc(F)c2C#N)CCN1C(=O)c1cc(CN2CCN(c3ccccc3Cl)CC2)cn1C [Example I-101, (S)-2-(4-(4-((4-(2-chlorophenyl)piperazin-1-yl)methyl)-1-methyl-1H-pyrrole-2-carbonyl)-3-methylpiperazin-1-yl)-6-fluorobenzonitrile] |
| 10 to 1000 | > 10000 | Cc1c(CN2CCN(c3ccccc3Cl)CC2)cc(C(=O)N2CCN(c3cccc(F)c3C#N)C[C@@H]2C)n1C [Example I-102, (S)-2-(4-(4-((4-(2-chlorophenyl)piperazin-1-yl)methyl)-1,5-dimethyl-1H-pyrrole-2-carbonyl)-3-methylpiperazin-1-yl)-6-fluorobenzonitrile] |
| 10 to 1000 | > 3000 | Cc1c(CN2CCN(c3ccccc3Cl)CC2)cc(C(=O)N2CCN(c3cccc(F)c3C#N)CC2)n1C [Example I-107, 2-(4-(4-((4-(2-chlorophenyl)piperazin-1-yl)methyl)-1,5-dimethyl-1H-pyrrole-2-carbonyl)piperazin-1-yl)-6-fluorobenzonitrile] |
| 10 to 1000 | > 3000 | Cc1c(CN2CCN(c3ccccc3Cl)CC2)cc(C(=O)N2CCN(c3cc(F)c(F)c(F)c3)CC2)n1C [Example I-111, (4-((4-(2-Chlorophenyl)piperazin-1-yl)methyl)-1,5-dimethyl-1H-pyrrol-2-yl)(4-(3,4,5-trifluorophenyl)piperazin-1-yl)methanone] |
